Data: patent US4145554A, “3-Nitropyrazole derivatives” (Eli Lilly and Company, priority 1977, dated 1979)
Converted amounts (≈) assume the structure as drawn.

What was measured:
[1] = system: large crabgrass; experiment: herbicidal activity, application to plants; assay type: in vivo; conditions: applied to foliage of growing plant at 1 lb./acre
Excerpt: The herbicidal compounds of our invention have shown the ability to control undesired plants at levels as low as 1 lb./acre. Herbicidal activity is obtained when the 3-nitropyrazole herbicide is applied to the plants to be controlled in the conventional manner, by direct application as a spray or dry formulation to the plant or its supporting soil.

[2] = system: Escherichia coli; experiment: in vitro tube dilution test (MIC); assay type: cell-based; conditions: tube dilution, read-out: MIC
Summary of the method: (§1)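 Standard tube dilution test; MIC reported as micrograms of compound per milliliter.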

[3] = system: Mycoplasma gallisepticum; experiment: in vitro tube dilution test (MIC); assay type: cell-based; conditions: Mycoplasmoides gallisepticum; Mycoplasma gallisepticum, tube dilution; read-out: MIC
Summary of the method: as §1

[4] = system: Vibrio coli 3811; experiment: in vitro tube dilution test (MIC); assay type: cell-based; conditions: Campylobacter coli; Vibrio coli 3811, tube dilution; read-out: MIC
[5] = system: Salmonella dublin; experiment: in vitro tube dilution test (MIC); assay type: cell-based; conditions: Salmonella enterica; Salmonella dublin, tube dilution; read-out: MIC
[6] = system: Staphylococcus aureus sp. 1130; experiment: in vitro tube dilution test (MIC); assay type: cell-based; conditions: Staphylococcus aureus sp. 1130, tube dilution; read-out: MIC
[7] = system: Streptococcus sp. 80; experiment: in vitro tube dilution test (MIC); assay type: cell-based; conditions: Streptococcus sp. 80, tube dilution; read-out: MIC
Excerpt: Other compounds of our invention have also been tested in the tube dilution test and shown to have in vitro activity against a number of microorganisms. The table below reports tests of a number of exemplary compounds against exemplary microorganisms. The compounds are identified by their numbers in the listing above. The data are reported as the MIC in micrograms per milliliter against the named exemplary microorganisms.

For CCn1cc(C#N)c([N+](=O)[O-])n1 [Compound 1, 1-ethyl-3-nitro-4-pyrazolecarbonitrile], the “control of large crabgrass” value [1] was “kills large crabgrass”, the MIC [2] was 100 µg/mL (≈ 602 µM) and the MIC [3] was greater than 50 µg/mL. For the same molecule, the MIC [4] was 12.5 µg/mL (≈ 75.2 µM), the MIC [5] was 100 µg/mL (≈ 602 µM) and the MIC [6] was 100 µg/mL (≈ 602 µM). The MIC [7] was 100 µg/mL (≈ 602 µM).
